{
  "source": "patent US11535632B2",
  "about": "“Solid forms of an S1P-receptor modulator” (ESCAPE Bio, Inc., priority 2019, dated 2022)",
  "assay_type_in_all_cases": "physicochemical",
  "key": {"[1]": {"assay": "Hygroscopicity evaluation by DVS at 25° C.", "procedure": "Hygroscopicity of Compound 1, Form A and Compound 1, Form B was evaluated by DVS at 25° C."}, "[2]": {"assay": "Competitive slurries of Form B and C in process relevant solvents", "conditions": "90° C. in DMSO", "procedure": "Determination of the relative stabilities of Form B and Form C was undertaken to identify which material was more thermodynamically stable in process relevant solvents. As a suspected solvate was isolated from experiments where DMAC was used as a solvent, only DMSO and acetic acid were determined to be appropriate process solvents. Combinations of these solvents with relevant antisolvents were therefore selected for the competitive slurry experiments.\nCompound 1 (from Example 2) was dispensed into HPLC vials. To these, 1 ml of selected solvents was subsequently added to give a suspension. Materials were slurried for 72 hours at 90° C., 50° C. or 25° C. with 500 rpm stirring. Material was subsequently isolated by centrifugation and analyzed by XRPD."}, "[3]": {"assay": "Solid state stability study", "text": "The two lots of Compound 1 were characterized by HPLC, PLM, XRPD, DSC, TGA, and KF. […] According to the stability study at different conditions, the two forms of compound were practically stable at different humidity for at least 4 weeks, with no XRPD pattern change and no growth of impurities were found."}, "[4]": {"assay": "Room temperature equilibrium solubility in aqueous suspensions", "conditions": "listed as Compound 1, Form A; for Total drug in solution: room temperature equilibrium, HPLC of supernatant"}, "[5]": {"assay": "Solubility and metastable zone width by Crystal 16", "conditions": "damp material isolated from DMAC, dried", "procedure": "A Crystal 16 crystallization system (Technobis, NL) was used to determine the solubility and metastable zone of the material as a function of temperature. Slurries of the API, in different overall concentrations, were prepared by adding a known amount of solid to a known amount of chilled solvent (between 0.5 and 1.5 ml) and stirred at 350 rpm using a magnetic bar. The saturation temperature was measured through cycles of heating and cooling from 20 to 90° C. at 0.5° C./min.\nUpon increasing the temperature, the solid completely dissolved and the suspension became a clear solution such that the light transmission reached its maximum value. This temperature was assigned as the clear point, which was assumed to coincide with the saturation temperature. Then, by cooling the solution at a rate of 0.5° C./min, the temperature at which particles first formed was detected by a decrease in the light transmission. This was assigned as the cloud point. The points were fitted by a Van′t Hoff equation and the difference between the cloud and the clear points defined the metastable zone width (MSZW) of the system. The instrument control software was Crystallization Systems and the data were analyzed using Crystal Clear and Microsoft Excel.\nThe solubility of compound 1 (various masses) in DMAC and DMSO (1 ml) was analyzed on the Crystal 16 (between 25-90° C. for DMSO and 0-90° C. for DMAC). A heating/cooling rate of 0.5° C./min and a stirring rate of 300 rpm was used for all samples. The resulting turbidity/temperature plots were analyzed to obtain solubility curves and determine the metastable zone width. Any precipitated solids were isolated by filtration and analyzed by XRPD."}},
  "note": "Read-outs that look alike come from different tables or passages of the source.",
  "data": [
    {"smiles": "O=C(O)[C@H]1C[C@@H](N2CCc3oc(-c4ccc(OCc5ccc(Cl)cc5)cc4)nc3C2)C1", "note": "[Form A, (1s,3s)-3-(2-(4-((4-chlorobenzyl)oxy)phenyl)-6,7-dihydrooxazolo[4,5-c]pyridin-5(4H)-yl)cyclobutane-1-carboxylic acid]", "values": [
      {"measurement": "XRPD after DVS test", "setting": "[1]", "value": "No form change but crystallinity"},
      {"measurement": "DVS Desorp. (%)", "setting": "[1]; 0% RH, 1st Desorp.", "value": 0.00, "unit": "%"},
      {"measurement": "DVS Sorp. (%)", "setting": "[1]; 0% RH, 1st Sorp.", "value": 0.00, "unit": "%"},
      {"measurement": "DVS Desorp. (%)", "setting": "[1]; 0% RH, 2nd Desorp.", "value": 0.00, "unit": "%"},
      {"measurement": "DVS Sorp. (%)", "setting": "[1]; 0% RH, 2nd Sorp.", "value": 0.00, "unit": "%"},
      {"measurement": "DVS Desorp. (%)", "setting": "[1]; 10% RH, 1st Desorp.", "value": 0.01, "unit": "%"},
      {"measurement": "DVS Sorp. (%)", "setting": "[1]; 10% RH, 1st Sorp.", "value": 0.00, "unit": "%"},
      {"measurement": "DVS Desorp. (%)", "setting": "[1]; 10% RH, 2nd Desorp.", "value": 0.01, "unit": "%"},
      {"measurement": "DVS Sorp. (%)", "setting": "[1]; 10% RH, 2nd Sorp.", "value": 0.00, "unit": "%"},
      {"measurement": "DVS Desorp. (%)", "setting": "[1]; 20% RH, 1st Desorp.", "value": 0.01, "unit": "%"},
      {"measurement": "DVS Sorp. (%)", "setting": "[1]; 20% RH, 1st Sorp.", "value": "−0.01", "unit": "%"},
      {"measurement": "DVS Desorp. (%)", "setting": "[1]; 20% RH, 2nd Desorp.", "value": 0.01, "unit": "%"},
      {"measurement": "DVS Sorp. (%)", "setting": "[1]; 20% RH, 2nd Sorp.", "value": 0.00, "unit": "%"},
      {"measurement": "DVS Desorp. (%)", "setting": "[1]; 30% RH, 1st Desorp.", "value": 0.02, "unit": "%"},
      {"measurement": "DVS Sorp. (%)", "setting": "[1]; 30% RH, 1st Sorp.", "value": 0.00, "unit": "%"},
      {"measurement": "DVS Desorp. (%)", "setting": "[1]; 30% RH, 2nd Desorp.", "value": 0.02, "unit": "%"},
      {"measurement": "DVS Sorp. (%)", "setting": "[1]; 30% RH, 2nd Sorp.", "value": 0.01, "unit": "%"},
      {"measurement": "DVS Desorp. (%)", "setting": "[1]; 40% RH, 1st Desorp.", "value": 0.02, "unit": "%"},
      {"measurement": "DVS Sorp. (%)", "setting": "[1]; 40% RH, 1st Sorp.", "value": 0.00, "unit": "%"},
      {"measurement": "DVS Desorp. (%)", "setting": "[1]; 40% RH, 2nd Desorp.", "value": 0.02, "unit": "%"},
      {"measurement": "DVS Sorp. (%)", "setting": "[1]; 40% RH, 2nd Sorp.", "value": 0.01, "unit": "%"},
      {"measurement": "DVS Sorp. (%)", "setting": "[1]; 50% RH, 1st Sorp.", "value": 0.01, "unit": "%"},
      {"measurement": "DVS Desorp. (%)", "setting": "[1]; 50% RH, 2nd Desorp.", "value": 0.03, "unit": "%"},
      {"measurement": "DVS Sorp. (%)", "setting": "[1]; 60% RH, 1st Sorp.", "value": 0.01, "unit": "%"},
      {"measurement": "DVS Desorp. (%)", "setting": "[1]; 60% RH, 2nd Desorp.", "value": 0.03, "unit": "%"},
      {"measurement": "DVS Sorp. (%)", "setting": "[1]; 70% RH, 1st Sorp.", "value": 0.02, "unit": "%"},
      {"measurement": "DVS Desorp. (%)", "setting": "[1]; 70% RH, 2nd Desorp.", "value": 0.04, "unit": "%"},
      {"measurement": "DVS Sorp. (%)", "setting": "[1]; 80% RH, 1st Sorp.", "value": 0.02, "unit": "%"},
      {"measurement": "DVS Desorp. (%)", "setting": "[1]; 80% RH, 2nd Desorp.", "value": 0.04, "unit": "%"},
      {"measurement": "DVS Sorp. (%)", "setting": "[1]; 90% RH, 1st Sorp.", "value": 0.03, "unit": "%"},
      {"measurement": "DVS Desorp. (%)", "setting": "[1]; 90% RH, 2nd Desorp.", "value": 0.04, "unit": "%"},
      {"measurement": "DVS Sorp. (%)", "setting": "[1]; 95% RH, 1st Sorp.", "value": 0.01, "unit": "%"},
      {"measurement": "DVS Desorp. (%)", "setting": "[1]; 95% RH, 2nd Desorp.", "value": 0.01, "unit": "%"},
      {"measurement": "Hygroscopicity based on DVS results", "setting": "[1]; listed as Compound 1, Form A", "value": "non-hygroscopic"},
      {"measurement": "XRPD after DVS test", "setting": "[1]; listed as Compound 1, Form A", "value": "no form change but crystallinity decreased and peaks became broad"},
      {"measurement": "Relative thermodynamic stability", "setting": "[2]", "value": "most thermodynamically stable polymorph"},
      {"measurement": "Crystallinity (XRPD & PLM)", "setting": "[3]; 4 weeks, 25° C./60% RH", "value": "Crystalline"},
      {"measurement": "Purity", "setting": "[3]; 4 weeks, 25° C./60% RH", "value": 99.48, "unit": "%"},
      {"measurement": "Weight loss (TGA) (~120° C.)", "setting": "[3]; 4 weeks, 25° C./60% RH", "value": 0.981, "unit": "%"},
      {"measurement": "Crystallinity (XRPD & PLM)", "setting": "[3]; 4 weeks, 40° C./75% RH", "value": "Crystalline"},
      {"measurement": "Purity", "setting": "[3]; 4 weeks, 40° C./75% RH", "value": 99.46, "unit": "%"},
      {"measurement": "Weight loss (TGA) (~120° C.)", "setting": "[3]; 4 weeks, 40° C./75% RH", "value": 0.884, "unit": "%"},
      {"measurement": "Crystallinity (XRPD & PLM)", "setting": "[3]; 6 weeks, 25° C./60% RH", "value": "Crystalline"},
      {"measurement": "Purity", "setting": "[3]; 6 weeks, 25° C./60% RH", "value": 99.54, "unit": "%"},
      {"measurement": "Water content", "setting": "[3]; 6 weeks, 25° C./60% RH", "value": 0.784, "unit": "%"},
      {"measurement": "Weight loss (TGA) (~120° C.)", "setting": "[3]; 6 weeks, 25° C./60% RH", "value": 0.831, "unit": "%"},
      {"measurement": "Crystallinity (XRPD & PLM)", "setting": "[3]; 6 weeks, 40° C./75% RH", "value": "Crystalline"},
      {"measurement": "Purity", "setting": "[3]; 6 weeks, 40° C./75% RH", "value": 99.47, "unit": "%"},
      {"measurement": "Water content", "setting": "[3]; 6 weeks, 40° C./75% RH", "value": 0.547, "unit": "%"},
      {"measurement": "Weight loss (TGA) (~120° C.)", "setting": "[3]; 6 weeks, 40° C./75% RH", "value": 0.739, "unit": "%"},
      {"measurement": "Crystallinity (XRPD & PLM)", "setting": "[3]; 8 weeks, 25° C./60% RH", "value": "Crystalline"},
      {"measurement": "Purity", "setting": "[3]; 8 weeks, 25° C./60% RH", "value": 99.51, "unit": "%"},
      {"measurement": "Water content", "setting": "[3]; 8 weeks, 25° C./60% RH", "value": 0.559, "unit": "%"},
      {"measurement": "Weight loss (TGA) (~120° C.)", "setting": "[3]; 8 weeks, 25° C./60% RH", "value": 0.946, "unit": "%"},
      {"measurement": "Crystallinity (XRPD & PLM)", "setting": "[3]; 8 weeks, 40° C./75% RH", "value": "Crystalline"},
      {"measurement": "Purity", "setting": "[3]; 8 weeks, 40° C./75% RH", "value": 99.53, "unit": "%"},
      {"measurement": "Water content", "setting": "[3]; 8 weeks, 40° C./75% RH", "value": 0.608, "unit": "%"},
      {"measurement": "Weight loss (TGA) (~120° C.)", "setting": "[3]; 8 weeks, 40° C./75% RH", "value": 0.801, "unit": "%"},
      {"measurement": "Crystallinity (XRPD & PLM)", "setting": "[3]; Initial", "value": "Crystalline"},
      {"measurement": "Purity", "setting": "[3]; Initial", "value": 99.46, "unit": "%"},
      {"measurement": "Water content", "setting": "[3]; Initial", "value": 0.513, "unit": "%"},
      {"measurement": "Weight loss (TGA) (~120° C.)", "setting": "[3]; Initial", "value": 0.722, "unit": "%"},
      {"measurement": "Total drug in solution", "setting": "[4]; 0.2% HPMC aqueous suspension", "value": 1.3, "unit": "µg/mL"},
      {"measurement": "pH", "setting": "[4]; 0.2% HPMC aqueous suspension", "value": 7.2},
      {"measurement": "Total drug in solution", "setting": "[4]; 0.25% SLS aqueous suspension", "value": 23.7, "unit": "µg/mL"},
      {"measurement": "pH", "setting": "[4]; 0.25% SLS aqueous suspension", "value": 6.9},
      {"measurement": "Total drug in solution", "setting": "[4]; 20% HP-BCD aqueous suspension", "value": 446.5, "unit": "µg/mL"},
      {"measurement": "pH", "setting": "[4]; 20% HP-BCD aqueous suspension", "value": 5.7}
    ]},
    {"smiles": "O=C(O)[C@H]1C[C@@H](N2CCc3oc(-c4ccc(OCc5ccc(Cl)cc5)cc4)nc3C2)C1", "note": "[Form D, (1s,3s)-3-(2-(4-((4-chlorobenzyl)oxy)phenyl)-6,7-dihydrooxazolo[4,5-c]pyridin-5(4H)-yl)cyclobutane-1-carboxylic acid]", "values": [
      {"measurement": "Form change upon drying (XRPD)", "setting": "[5]", "value": "converted to Form C"}
    ]}
  ]
}
